Reference: US7566712B2, “Biaryl piperazinyl-pyridine analogues” (Neurogen Corporation, priority 2003, dated 2009)
pIC50: −log10 of the molar value.

Target: T1, human capsaicin receptor (Homo sapiens, UniProt Q8NER1)
T1 construct: pBK-CMV expression construct encoding the full length human capsaicin receptor; expressed in transfected cells
Assay: Calcium mobilization assay, determination of antagonist activity (Example 6)
Type: cell-based
Settings: determined as described in Example 6 (calcium mobilization, antagonist activity); Table II
Method in brief: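 Antagonism measured as inhibition of capsaicin-evoked (final concentration = EC50, from an 8-point 1 nM–3 μM curve) Fluo-3 calcium signal in stable hVR1-HEK293 cells. Test compounds at 1–5 μM final, 0.5–6 h dark preincubation at room temperature. IC50 = concentration giving 50% reduction versus agonist-only response.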

T1 sequence (Q8NER1 whole entry): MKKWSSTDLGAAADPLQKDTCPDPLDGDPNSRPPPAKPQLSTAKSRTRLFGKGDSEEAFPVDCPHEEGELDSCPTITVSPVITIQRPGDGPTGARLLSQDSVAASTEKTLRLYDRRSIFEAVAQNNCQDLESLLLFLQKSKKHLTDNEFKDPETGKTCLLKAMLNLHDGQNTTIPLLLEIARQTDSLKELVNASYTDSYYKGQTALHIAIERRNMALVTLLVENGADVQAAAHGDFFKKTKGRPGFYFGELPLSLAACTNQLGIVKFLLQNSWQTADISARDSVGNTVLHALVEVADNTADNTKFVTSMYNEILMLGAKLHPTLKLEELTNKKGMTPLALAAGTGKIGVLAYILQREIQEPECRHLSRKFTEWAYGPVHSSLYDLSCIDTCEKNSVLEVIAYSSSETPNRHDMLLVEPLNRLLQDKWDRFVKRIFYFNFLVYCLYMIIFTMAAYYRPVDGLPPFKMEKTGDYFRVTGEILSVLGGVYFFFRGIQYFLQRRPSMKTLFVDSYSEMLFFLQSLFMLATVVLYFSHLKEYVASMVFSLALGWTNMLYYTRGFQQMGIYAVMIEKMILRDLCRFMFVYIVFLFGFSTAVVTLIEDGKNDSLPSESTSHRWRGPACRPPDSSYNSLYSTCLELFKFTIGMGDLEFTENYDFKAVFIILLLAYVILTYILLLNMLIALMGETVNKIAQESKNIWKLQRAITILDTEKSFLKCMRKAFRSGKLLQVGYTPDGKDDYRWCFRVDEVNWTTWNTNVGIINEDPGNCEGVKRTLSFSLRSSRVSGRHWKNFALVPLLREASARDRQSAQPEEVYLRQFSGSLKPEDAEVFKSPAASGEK

Row | pIC50 | SMILES
1 | ≥ 6.00 | CCN1CCN(c2nc(-c3ccc(F)c(C)c3)cc(N3CCN(c4ncccc4C(F)(F)F)CC3)n2)CC1 [Example 667, 2-(4-ethylpiperazin-1-yl)-4-(4-fluoro-3-methylphenyl)-6-{4-[3-(trifluoromethyl)pyridin-2-yl]piperazin-1-yl}pyrimidine]
2 | ≥ 6.00 | O=C1CCCN1c1nc(-c2ccc(F)c(Cl)c2)cc(N2CCN(c3ncccc3C(F)(F)F)CC2)n1 [Example 668, 1-(4-(3-chloro-4-fluorophenyl)-6-{4-[3-(trifluoromethyl)pyridin-2-yl]piperazin-1-yl}pyrimidin-2-yl)pyrrolidin-2-one]
3 | ≥ 6.00 | CC1CCC(C)N1c1nc(-c2ccc(F)c(Cl)c2)cc(N2CCN(c3ncccc3C(F)(F)F)CC2)n1 (centres unmarked) [Example 669, 4-(3-chloro-4-fluorophenyl)-2-(2,5-dimethylpyrrolidin-1-yl)-6-{4-[3-(trifluoromethyl)pyridin-2-yl]piperazin-1-yl}pyrimidine]
4 | ≥ 6.00 | [O-][n+]1ccc(-c2nc(-c3ccc(F)c(Cl)c3)cc(N3CCN(c4ncccc4C(F)(F)F)CC3)n2)cc1 [Example 670]
5 | ≥ 6.00 | CC(=O)c1nc(-c2ccc(F)c(Cl)c2)cc(N2CCN(c3ncccc3C(F)(F)F)CC2)n1 [Example 671, 1-(4-(3-chloro-4-fluorophenyl)-6-{4-[3-(trifluoromethyl)pyridin-2-yl]piperazin-1-yl}pyrimidin-2-yl)ethanone]
6 | ≥ 6.00 | CC(=O)c1nc(-c2ccc(F)c(C)c2)cc(N2CCN(c3ncccc3C(F)(F)F)CC2)n1 [Example 672, 1-(4-(4-fluoro-3-methylphenyl)-6-{4-[3-(trifluoromethyl)pyridin-2-yl]piperazin-1-yl}pyrimidin-2-yl)ethanone]
7 | ≥ 6.00 | Fc1ccc(-c2cc(N3CCN(c4ncccc4C(F)(F)F)CC3)nc(N3CCN(c4ncccc4C(F)(F)F)CC3)n2)cc1Cl [Example 673, 4-(3-chloro-4-fluorophenyl)-2,6-bis{4-[3-(trifluoromethyl)pyridin-2-yl]piperazin-1-yl}pyrimidine]
8 | ≥ 6.00 | Cc1cc(-c2cc(N3CCN(c4ncccc4C(F)(F)F)CC3)nc(N3CCCC3)n2)ccc1F [Example 674, 4-(4-fluoro-3-methylphenyl)-2-pyrrolidin-1-yl-6-{4-[3-(trifluoromethyl)pyridin-2-yl]piperazin-1-yl}pyrimidine]
9 | ≥ 6.00 | Cc1cc(-c2cc(N3CCN(c4ncccc4C(F)(F)F)CC3)nc(N3CCCCC3)n2)ccc1F [Example 675, 4-(4-fluoro-3-methylphenyl)-2-piperidin-1-yl-6-{4-[3-(trifluoromethyl)pyridin-2-yl]piperazin-1-yl}pyrimidine]
10 | ≥ 6.00 | Cc1cc(-c2cc(N3CCN(c4ncccc4C(F)(F)F)CC3)nc(N3CCCC3C)n2)ccc1F (centres unmarked) [Example 676, 4-(4-fluoro-3-methylphenyl)-2-(2-methylpyrrolidin-1-yl)-6-{4-[3-(trifluoromethyl)pyridin-2-yl]piperazin-1-yl}pyrimidine]
11 | ≥ 6.00 | Cc1cc(-c2cc(N3CCN(c4ncccc4C(F)(F)F)CC3)nc(N3C(C)CCC3C)n2)ccc1F (centres unmarked) [Example 677, 2-(2,5-dimethylpyrrolidin-1-yl)-4-(4-fluoro-3-methylphenyl)-6-{4-[3-(trifluoromethyl)pyridin-2-yl]piperazin-1-yl}pyrimidine]
12 | ≥ 6.00 | Cc1cc(-c2cc(N3CCN(c4ncccc4C(F)(F)F)CC3)nc(N(CCO)CCO)n2)ccc1F [Example 678]
13 | ≥ 6.00 | CC(=O)N(C)c1nc(-c2ccc(F)c(Cl)c2)cc(N2CCN(c3ncccc3C(F)(F)F)CC2)n1 [Example 679, N-(4-(3-chloro-4-fluorophenyl)-6-{4-[3-(trifluoromethyl)pyridin-2-yl]piperazin-1-yl}pyrimidin-2-yl)-N-methylacetamide]
14 | ≥ 6.00 | O=C1CCC(=O)N1c1nc(-c2ccc(F)c(Cl)c2)cc(N2CCN(c3ncccc3C(F)(F)F)CC2)n1 [Example 680, 1-(4-(3-chloro-4-fluorophenyl)-6-{4-[3-(trifluoromethyl)pyridin-2-yl]piperazin-1-yl}pyrimidin-2-yl)pyrrolidine-2,5-dione]
15 | ≥ 6.00 | Cc1cc(-c2cc(N3CCN(c4ncccc4C(F)(F)F)CC3)nc(C(C)N(C)C)n2)ccc1F (centres unmarked) [Example 681, 1-(4-(4-fluoro-3-methylphenyl)-6-{4-[3-(trifluoromethyl)pyridin-2-yl]piperazin-1-yl}pyrimidin-2-yl)-N,N-dimethylethanamine]
16 | ≥ 6.00 | CCCN1CCN(c2nc(-c3ccc(F)c(C)c3)cc(N3CCN(c4ncccc4C(F)(F)F)CC3)n2)CC1 [Example 682, 4-(4-fluoro-3-methylphenyl)-2-(4-propylpiperazin-1-yl)-6-{4-[3-(trifluoromethyl)pyridin-2-yl]piperazin-1-yl}pyrimidine]

Row | pIC50 | SMILES
17 | ≥ 6.00 | CC(C)n1ccnc1-c1nc(-c2ccc(F)c(Cl)c2)cc(N2CCN(c3ncccc3C(F)(F)F)CC2)n1 [Example 683, 4-(3-chloro-4-fluorophenyl)-2-(1-isopropyl-1H-imidazol-2-yl)-6-{4-[3-(trifluoromethyl)pyridin-2-yl]piperazin-1-yl}pyrim:dine]
18 | ≥ 6.00 | Cc1cc(-c2cc(N3CCN(c4ncccc4C(F)(F)F)CC3)nc(-c3nccn3C(C)C)n2)ccc1F [Example 684, 4-(4-fluoro-3-methylphenyl)-2-(1-isopropyl-1H-imidazol-2-yl)-6-{4-[3-(trifluoromethyl)pyridin-2-yl]piperazin-1-yl}pyrimidine]
19 | ≥ 6.00 | Cc1cc(-c2cc(N3CCN(c4ncccc4C(F)(F)F)CC3)nc(N3CCCCS3(=O)=O)n2)ccc1F [Example 685, 2-(4-(4-fluoro-3-methylphenyl)-6-{4-[3-(trifluoromethyl)pyridin-2-yl]piperazin-1-yl}pyrimidin-2-yl)-1,2-thiazinane 1,1-dioxide]
20 | ≥ 6.00 | Cc1cc(-c2cc(N3CCN(c4ncccc4C(F)(F)F)CC3)nc(C(C)O)n2)ccc1F (centres unmarked) [Example 686, 1-(4-(4-fluoro-3-methylphenyl)-6-{4-[3-(trifluoromethyl)pyridin-2-yl]piperazin-1-yl}pyrimidin-2-yl)ethanol]
21 | ≥ 6.00 | Cc1cc(-c2cc(N3CCN(c4ncccc4C(F)(F)F)CC3)nc(N(CCO)C(C)C)n2)ccc1F [Example 687, 2-[(4-(4-fluoro-3-methylphenyl)-6-{4-[3-(trifluoromethyl)pyridin-2-yl]piperazin-1-yl}pyrimidin-2-yl)(isopropyl)amino]ethanol]
22 | ≥ 6.00 | Cc1cc(-c2cc(N3CCN(c4ncccc4C(F)(F)F)CC3)nc(N3CCN(S(C)(=O)=O)CC3)n2)ccc1F [Example 688, 4-(4-fluoro-3-methylphenyl)-2-[4-(methylsulfonyl)piperazin-1-yl]-6-{4-[3-(trifluoromethyl)pyridin-2-yl]piperazin-1-yl}pyrimidine]
23 | ≥ 6.00 | Cc1cc(-c2cc(N3CCN(c4ncccc4C(F)(F)F)CC3)nc(-c3ccncc3)n2)ccc1F [Example 689, 4-(4-fluoro-3-methylphenyl)-2-pyridin-4-yl-6-{4-[3-(trifluoromethyl)pyridin-2-yl]piperazin-1-yl}pyrimidine]
24 | ≥ 6.00 | Cc1cc(-c2cc(N3CCN(c4ncccc4C(F)(F)F)CC3)nc(NS(=O)(=O)C(C)C)n2)ccc1F [Example 690, N-(4-(4-fluoro-3-methylphenyl)-6-{4-[3-(trifluoromethyl)pyridin-2-yl]piperazin-1-yl}pyrimidin-2-yl)propane-2-sulfonamide]
25 | ≥ 6.00 | Cc1cc(-c2cc(N3CCN(c4ncccc4C(F)(F)F)CC3)nc(N(C)S(=O)(=O)C(C)C)n2)ccc1F [Example 691, N-(4-(4-fluoro-3-methylphenyl)-6-{4-[3-(trifluoromethyl)pyridin-2-yl]piperazin-1-yl}pyrimidin-2-yl)-N-methytpropane-2-sulfonamide]
26 | ≥ 6.00 | Cc1cc(-c2cc(N3CCN(c4ncccc4C(F)(F)F)CC3)nc(N(C(C)C)S(=O)(=O)C(C)C)n2)ccc1F [Example 692, N-(4-(4-fluoro-3-methylphenyl)-6-{4-[3-(trifluoromethyl)pyridin-2-yl]piperazin-1-yl}pyrimidin-2-yl)-N-isopropylpropane-2-sulfonamide]
27 | ≥ 6.00 | Fc1ccc(-c2cc(N3CCN(c4ncccc4C(F)(F)F)CC3)nc(NC3CCCC3)n2)cc1Cl [Example 693, 4-(3-chloro-4-fluorophenyl)-N-cyclopentyl-6-{4-[3-(trifluoromethyl)pyridin-2-yl]piperazin-1-yl}pyrimidin-2-amine]
28 | ≥ 6.00 | CNC[C@@H]1CCCN1c1nc(-c2ccc(F)c(Cl)c2)cc(N2CCN(c3ncccc3C(F)(F)F)CC2)n1 [Example 694, 1-[(2S)-1-(4-(3-chloro-4-fluorophenyl)-6-{4-[3-(trifluoromethyl)pyridin-2-yl]piperazin-1-yl}pyrimidin-2-yl)pyrrolidin-2-yl]-N-methylmethanamine]
29 | ≥ 6.00 | Cc1cccnc1N1CCN(c2cc(-c3ccc(F)c(Cl)c3)nc(N3CCCC3C)n2)CC1 (centres unmarked) [Example 695, 4-(3-chloro-4-fluorophenyl)-6-[4-(3-methylpyridin-2-yl)piperazin-1-yl]-2-(2-methylpyrrolidin-1-yl)pyrimidine]
30 | ≥ 6.00 | Cc1cc(-c2cc(N3CCN(c4ncccc4C)CC3)nc(N3CCCC3C)n2)ccc1F (centres unmarked) [Example 696, 4-(4-fluoro-3-methylphenyl)-6-[4-(3-methylpyridin-2-yl)piperazin-1-yl]-2-(2-methylpyrrolidin-1-yl)pyrimidine]
31 | ≥ 6.00 | Cc1cc(-c2cc(N3CCN(c4ncccc4Cl)CC3)nc(N3CCCC3)n2)ccc1F [Example 697, 4-[4-(3-chloropyridin-2-yl)piperazin-1-yl]-6-(4-fluoro-3-methylphenyl)-2-pyrrolidin-1-ylpyrimidine]
32 | ≥ 6.00 | Cc1cc(-c2cc(N3CCN(c4ncccc4Cl)CC3)nc(N3CCCC3C)n2)ccc1F (centres unmarked) [Example 698, 4-[4-(3-chloropyridin-2-yl)piperazin-1-yl]-6-(4-fluoro-3-methylphenyl)-2-(2-methylpyrrolidin-1-yl)pyrimidine]
